pIC50: −log10 of the molar value.
Assays:
[1] = system: N87 (human gastric carcinoma derived from metastatic liver site); assay: Cytotoxicity assay for payloads (MTS), N87 cells; type: cell-based; settings: Homo sapiens, 96 h; N87 cells, incubated with compounds for four days, MTS absorbance 490 nm; read-out: N87 IC50
How it was run: (§1)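 Cells in RPMI 1640 with 10% FBS exposed to compounds for four days at 10 concentrations in duplicate. Viability read by MTS absorbance at 490 nm after 1.5 h, as % of untreated controls; IC50 from four-parameter logistic fit.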

HL60 (leukemia) = assay: Cytotoxicity assay for payloads (MTS), HL-60 cells; type: cell-based; settings: Homo sapiens, 96 h, incubated with compounds for four days, MTS absorbance 490 nm
How it was run: as §1

SMILES	pIC50 [1]	pIC50 (HL60 (leukemia))
CC(=O)Oc1cc2c(c3ccccc13)[C@H](CCl)CN2C(=O)C12CC(C(=O)N3C[C@@H](CCl)c4c3cc(OC(C)=O)c3ccccc43)(C1)C2 [Compound 152, bicyclo[1.1.1]pentane-1,3-diylbis[carbonyl(1S)-1-(chloromethyl)-1,2-dihydro-3H-benzo[e]indole-3,5-diyl] diacetate]	9.56	11.10
CC(=O)Oc1cc2c(c3c(C)c[nH]c13)[C@H](CCl)CN2C(=O)C12CCC(C(=O)N3C[C@@H](CCl)c4c3cc(OC(C)=O)c3[nH]cc(C)c43)(CC1)C2 [Compound 88, bicyclo[2.2.1]heptane-1,4-diylbis[carbonyl(1S)-1-(chloromethyl)-8-methyl-1,6-dihydropyrrolo[3,2-e]indole-3,5(2H)-diyl]diacetate]	9.30	10.66
Cc1c[nH]c2c(O)cc3c(c12)[C@H](CCl)CN3C(=O)C12CC(C(=O)N3C[C@@H](CCl)c4c3cc(N)c3ccccc43)(C1)C2 [Compound 180, [(1S)-5-amino-1-(chloromethyl)-1,2-dihydro-3H-benzo[e]indol-3-yl](3-{[(1S)-1-(chloromethyl)-5-hydroxy-8-methyl-1,6-dihydropyrrolo[3,2-e]indol-3(2H)-yl]carbonyl}bicyclo[1.1.1]pent-1-yl)methanone]	9.37	10.32
Cc1c[nH]c2c1[C@@]13C[C@@H]1CN(C(=O)C14CC(C(=O)N5C[C@H]6C[C@@]67C5=CC(=O)c5[nH]cc(C)c57)(C1)C4)C3=CC2=O [Compound 135, (3bR,4aS,3b′R,4a′S)-6,6′-(bicyclo[1.1.1]pentane-1,3-diyldicarbonyl)bis(3-methyl-4,4a,5,6-tetrahydrocyclopropa[c]pyrrolo[3,2-e]indol-8(1H)-one)]	10.72	11.30
Nc1cc2c(c3ccccc13)[C@H](CCl)CN2C(=O)C12CC(C(=O)N3C[C@@H](CCl)c4c3cc(OP(=O)(O)O)c3ccccc43)(C1)C2 [Compound 161, (1S)-3-[(3-{[(1S)-5-amino-1-(chloromethyl)-1,2-dihydro-3H-benzo[e]indol-3-yl]carbonyl}bicyclo[1.1.1]pent-1-yl)carbonyl]-1-(chloromethyl)-2,3-dihydro-1H-benzo[e]indol-5-yl dihydrogen phosphate]	≤ 8.00	7.56
CC(=O)Oc1cc2c(c3ccccc13)[C@H](CCl)CN2C(=O)CC12CC(CC(=O)N3C[C@@H](CCl)c4c3cc(OC(C)=O)c3ccccc43)(C1)C2 [Compound 158, bicyclo[1.1.1]pentane-1,3-diylbis[(1-oxoethane-2,1-diyl)(1S)-1-(chloromethyl)-1,2-dihydro-3H-benzo[e]indole-3,5-diyl] diacetate]	7.84	8.31
CC(=O)Oc1cc2c(c3ccccc13)[C@H](CCl)CN2C(=O)CC1(CC(=O)N2C[C@@H](CCl)c3c2cc(OC(C)=O)c2ccccc32)CCCC1 [Compound 157, cyclopentane-1,1-diylbis[(1-oxoethane-2,1-diyl)(1S)-1-(chloromethyl)-1,2-dihydro-3H-benzo[e]indole-3,5-diyl] diacetate]	≤ 8.00	7.11
Nc1cccc(C(CC(=O)N2C[C@@H](CCl)c3c2cc(O)c2ccccc32)CC(=O)N2C[C@@H](CCl)c3c2cc(O)c2ccccc32)c1 [Compound 44, 3-(3-Amino-phenyl)-1,5-bis-((S)-1-chloromethyl-5-hydroxy-1,2-dihydro-benzo[e]indol-3-yl)-pentane-1,5-dione]	≤ 8.00	8.28
CC(=O)Oc1cc2c(c3c(C)c[nH]c13)[C@H](CCl)CN2C(=O)C12CCC(C(=O)N3C[C@@H](CCl)c4c3cc(OC(C)=O)c3[nH]cc(C)c43)(CC1)CC2 [Compound 85, bicyclo[2.2.2]octane-1,4-diylbis[carbonyl(1S)-1-(chloromethyl)-8-methyl-1,6-dihydropyrrolo[3,2-e]indole-3,5(2H)-diyl]diacetate]	10.28	11.30
Nc1cc2c(c3ccccc13)[C@H](CCl)CN2C(=O)C12CC(C(=O)N3C[C@@H](CCl)c4c3cc(N)c3ccccc43)(C1)C2 [Compound 130, bicyclo[1.1.1]pentane-1,3-diylbis{[(1S)-5-amino-1-(chloromethyl)-1,2-dihydro-3H-benzo[e]indol-3-yl]methanone}]	8.74	9.64
Nc1ccc(C(CC(=O)N2C[C@@H](CCl)c3c2cc(O)c2ccccc32)CC(=O)N2C[C@@H](CCl)c3c2cc(O)c2ccccc32)cc1 [Compound 48, 3-(4-Amino-phenyl)-1,5-bis-((S)-1-chloromethyl-5-hydroxy-1,2-dihydro-benzo[e]indol-3-yl)-pentane-1,5-dione]	7.91	8.76
CC(=O)Oc1cc2c(c3ccccc13)[C@H](CCl)CN2C(=O)c1cc2cc(NC(=O)Nc3ccc4[nH]c(C(=O)N5C[C@@H](CCl)c6c5cc(OC(C)=O)c5ccccc65)cc4c3)ccc2[nH]1 [Compound 149, (1S)-3-[(5-{[(2-{[(1S)-5-(acetyloxy)-1-(chloromethyl)-1,2-dihydro-3H-benzo[e]indol-3-yl]carbonyl}-1H-indol-5-yl)carbamoyl]amino}-1H-indol-2-yl)carbonyl]-1-(chloromethyl)-1,2-dihydro-3H-benzo[e]indol-5-yl acetate]	9.88	11.15
O=C([C@@H]1CNC[C@H](C(=O)N2C[C@@H](CCl)c3c2cc(O)c2ccccc32)C1)N1C[C@@H](CCl)c2c1cc(O)c1ccccc21 [Compound 174, (3R,5S)-piperidine-3,5-diylbis{[(1S)-1-(chloromethyl)-5-hydroxy-1,2-dihydro-3H-benzo[e]indol-3-yl]methanone}]	7.06	8.71
CC(=O)Oc1cc2c(c3ccccc13)[C@H](CCl)CN2C(=O)C12CCC(C(=O)N3C[C@@H](CCl)c4c3cc(OC(C)=O)c3ccccc43)(CC1)CC2 [Compound 159, bicyclo[2.2.2]octane-1,4-diylbis[carbonyl(1S)-1-(chloromethyl)-1,2-dihydro-3H-benzo[e]indole-3,5-diyl] diacetate]	8.62	10.35

— US10086085B2, “Bifunctional cytotoxic agents” (priority 2014, dated 2018)
